Test results: US20050113419A1, “Therapeutic compounds for treating dyslipidemic conditions” (priority 2003, published 2005)

What was measured:
[1] = test system: Caco-2 cells; assay: Cholesterol efflux from cultured human Caco-2 cells; type: cell-based; conditions: 10 μg/ml apoA-I, 24 hours, mean of quadruplicate incubations
Protocol: Caco-2 cells, which are of human origin, were obtained from ATCC and grown in Opti-MEM (Gibco #51985-034) containing 10% FCS, non-essential amino acids (Gibco #11140-050), and vitamins (Gibco # 11120-052). Caco-2 cells were plated at 100,000 cells/well in 48-well plates. After four days the cells had reached confluence, and were then labeled with ^3H-cholesterol by incubation for 24 hours in fresh growth media containing ^3H-cholesterol (10 μCi/mi). Following labeling with ^3H-cholesterol, cells were washed and incubated an additional 24 hours in serum-free media containing 1 mg/ml BSA, to allow for equilibration of ^3H-cholesterol with intracellular cholesterol. Cholesterol efflux was initiated by adding 10 μg/ml apoA-I, with or without compound, in serum-free medium. Compounds were added to cell culture medium from DMSO solutions, and control cells received an equivalent amount of DMSO, never exceeding 0.1%. After 24 hours, media were harvested and cells dissolved in 0.1 M NaOH. Media were briefly centrifuged to remove non-adherent cells, and then aliquots of both the supernatants and the dissolved cells were subjected to liquid scintillation spectrometry to determine radioactivity. Cholesterol efflux is expressed as a percentage, calculated as (^3H-cholesterol in riedium/(^3H-cholesterol in medium+^3H-cholesterol in cells))×100.

[2] = target: T1, human LXRα (Homo sapiens, UniProt Q13133); assay: Radioligand competition binding scintillation proximity assay, LXRα
T1 construct: made in house; host or cells: E. coli (pGEX-KT vector)
T1 sequence (Q13133 164-447): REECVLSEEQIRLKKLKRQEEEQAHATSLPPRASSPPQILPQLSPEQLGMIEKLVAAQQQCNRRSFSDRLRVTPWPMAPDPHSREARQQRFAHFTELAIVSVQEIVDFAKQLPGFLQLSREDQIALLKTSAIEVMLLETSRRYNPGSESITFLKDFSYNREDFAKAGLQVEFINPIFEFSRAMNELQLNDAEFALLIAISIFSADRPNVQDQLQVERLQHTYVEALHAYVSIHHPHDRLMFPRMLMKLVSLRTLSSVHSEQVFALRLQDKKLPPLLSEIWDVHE
Text: Radioligand Competition Binding Scintillation Proximity Assays

Structure (SMILES) | % cholesterol efflux ([1]; compound 30 nM) [%] | % cholesterol efflux ([1]; compound 100 nM) [%] | % cholesterol efflux ([1]; compound 300 nM) [%] | % cholesterol efflux ([1]; compound 1000 nM) [%] | % cholesterol efflux ([1]; compound 3000 nM) [%] | % cholesterol efflux ([1]; compound 10000 nM) [%] | Kd [2] [nM]
CCCc1c(OCCCN(C)C(=O)Nc2ccccn2)ccc2c(C(F)(F)F)noc12 [Compound (18), N′-(2-pyridyl)-N-methyl-N-(3-{[7-propyl-3-(trifluoromethyl)-1,2-benzisoxazol-6-yl]oxy}propyl)urea] | 3.4 | 3.5 | 4.9 | 5.7 | 6.8 | 5.6 | –
CCCc1c(OCCCSc2ccc(CC(=O)O)cc2Cl)ccc2c(C(F)(F)F)noc12 [Compound A] | – | – | – | – | – | – | ~15
